The nature of data set [1]: Microsomal stability assay, human liver microsomes. The format is in vitro ADME. The note with it: for microsomal CLint at 1 μM: pH 7.4, 1 μM compound, 0.5 mg/mL protein, 37° C., read-out: HLM +/− NADPH: Clint (μL/min/mg protein); for half-life at 1 μM: pH 7.4, read-out: Liver microsome T½ (min) Human. In a few lines: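 Compound at 1 μM was incubated at 37° C with 0.5 mg/mL liver microsomes and 1 mM NADPH and/or 1 mM UDPGA (with alamethicin) in 100 mM potassium phosphate pH 7.4, 3 mM MgCl2. Samples were taken at 0, 15, 30 and 60 min and measured by LC/MS/MS. t½ came from compound loss relative to 0 min, and Clint was scaled with 45 mg microsomal protein/g liver.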
Background: Microsomes from liver hold many membrane-bound enzymes, among them those of drug oxidation.

For another data set, the target named is T1, androgen receptor (AR) (Homo sapiens, UniProt P10275, T878A).
T1 construct: LNCaP cells were transiently transfected with the PSA (6.1 kb)-luciferase reporter for 24 h; endogenous in cells; host or cells: LNCaP
T1 sequence (P10275 1-920 T878A): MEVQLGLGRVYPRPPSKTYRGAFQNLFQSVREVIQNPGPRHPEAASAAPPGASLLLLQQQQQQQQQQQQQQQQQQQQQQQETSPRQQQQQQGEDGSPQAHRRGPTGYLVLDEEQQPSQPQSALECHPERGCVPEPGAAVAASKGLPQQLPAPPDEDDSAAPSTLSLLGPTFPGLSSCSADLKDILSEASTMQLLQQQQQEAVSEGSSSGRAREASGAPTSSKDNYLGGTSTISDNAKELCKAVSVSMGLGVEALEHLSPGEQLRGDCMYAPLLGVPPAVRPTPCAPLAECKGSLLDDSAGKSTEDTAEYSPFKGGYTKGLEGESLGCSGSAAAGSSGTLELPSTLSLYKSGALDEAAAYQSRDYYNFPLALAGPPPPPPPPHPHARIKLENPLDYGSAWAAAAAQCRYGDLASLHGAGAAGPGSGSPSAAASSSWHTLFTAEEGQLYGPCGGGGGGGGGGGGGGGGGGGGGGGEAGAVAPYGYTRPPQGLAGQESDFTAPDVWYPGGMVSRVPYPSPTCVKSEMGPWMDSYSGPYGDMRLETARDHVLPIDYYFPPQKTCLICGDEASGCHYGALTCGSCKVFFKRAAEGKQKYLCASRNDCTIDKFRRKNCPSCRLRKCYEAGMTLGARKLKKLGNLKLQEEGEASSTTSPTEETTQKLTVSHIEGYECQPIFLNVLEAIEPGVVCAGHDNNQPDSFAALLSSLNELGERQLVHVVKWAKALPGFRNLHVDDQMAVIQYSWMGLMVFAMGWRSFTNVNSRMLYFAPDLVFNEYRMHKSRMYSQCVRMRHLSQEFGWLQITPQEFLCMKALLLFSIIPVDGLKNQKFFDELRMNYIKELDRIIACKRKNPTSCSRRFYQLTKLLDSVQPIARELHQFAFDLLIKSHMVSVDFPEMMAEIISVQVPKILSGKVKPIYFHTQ
As to the kind of experiment: Androgen-induced PSA (6.1 kb)-luciferase reporter assay in LNCaP cells. The format is cell-based. The note with it: LNCaP cells transfected with PSA (6.1 kb)-luciferase reporter, R1881 1 nM, 24 h. A digest of the protocol:
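Read-out is firefly luminescence (10 s) in LNCaP lysates, normalized to protein, from an ARE-containing PSA (6.1 kb)-luciferase reporter driven by androgen.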

Like-named read-outs stand apart in the source and are kept apart here. Where only a bound is given, the exact number is not on record here.

With `CC(C)(c1ccc(OCc2coc(NS(C)(=O)=O)n2)cc1)c1cc(Cl)c(OCCCl)c(Cl)c1` [Compound A38, N-(4-((4-(2-(3,5-dichloro-4-(2-chloroethoxy)phenyl)propan-2-yl)phenoxy)methyl)oxazol-2-yl)methanesulfonamide], in data set [1], the microsomal CLint at 1 μM was under 12 µL/min/mg and the half-life at 1 μM is over 120 min. Further, on androgen receptor (AR) (read-out: PSA-Luc IC50), the half-inhibitory concentration (IC50) turned out to be 631 nM. The half-maximal inhibitory concentration (IC50) on androgen receptor (AR) (read-out: PSA-Luc IC50 Range) was 500 to 2000 nM.

`Cc1cnc(NS(C)(=O)=O)nc1COc1ccc(C(C)(C)c2cc(Cl)c(OCCCl)c(C#N)c2)cc1` [Compound A122, N-(4-((4-(2-(3-Chloro-4-(2-chloroethoxy)-5-cyanophenyl)propan-2-yl)phenoxy)methyl)-5-methylpyrimidin-2-yl)methanesulfonamide]: the microsomal CLint at 1 μM in data set [1] was under 12 µL/min/mg. In addition, the IC50 on androgen receptor (AR) (read-out: PSA-Luc IC50 Range) was under 500 nM.

For the compound `CC(C)(c1ccc(OCc2nc(S(C)(=O)=O)cs2)cc1)c1cc(Cl)c(OCCCl)c(C#N)c1` [Compound A136, 3-Chloro-2-(2-chloroethoxy)-5-(2-(4-((4-(methylsulfonyl)thiazol-2-yl)methoxy)phenyl)propan-2-yl)benzonitrile], the microsomal CLint at 1 μM in data set [1] lay within 12 to 48 µL/min/mg. Besides, the IC50 at androgen receptor (AR) (read-out: PSA-Luc IC50 Range) fell in the range of 500 to 2000 nM.

Consider `CC(C)(c1ccc(OCc2ccnc(NS(C)(=O)=O)n2)cc1)c1cc(Cl)c(OCCCl)c(Cl)c1` [Compound A74, N-(4-((4-(2-(3,5-dichloro-4-(2-chloroethoxy)phenyl)propan-2-yl)phenoxy)methyl)pyrimidin-2-yl)methanesulfonamide], for which the microsomal CLint at 1 μM in data set [1] is under 12 µL/min/mg. Besides, the half-life at 1 μM in data set [1] is over 120 min. Further, the results for the IC50 at androgen receptor (AR) (read-out: PSA-Luc IC50) and at androgen receptor (AR) (read-out: PSA-Luc IC50 Range) were 658 nM and 500 to 2000 nM, respectively.

In the case of `CC(C)(c1ccc(OC[C@H](O)CNS(C)(=O)=O)cc1)c1cc(Cl)c(OC[C@H](O)CCl)c(Cl)c1` [X, reference compound], in data set [1], the half-life at 1 μM is over 120 min. Further, at androgen receptor (AR) (read-out: PSA-Luc IC50), the IC50 was determined as 1050 nM.

For the compound `CC(C)(c1ccc(OCc2ocnc2S(C)(=O)=O)cc1)c1cc(Cl)c(OCCCl)c(C#N)c1` [Compound A28, 3-chloro-2-(2-chloroethoxy)-5-(2-(4-((4-(methylsulfonyl)oxazol-5-yl)methoxy)phenyl)propan-2-yl)benzonitrile], the microsomal CLint at 1 μM in data set [1] was under 12 µL/min/mg. For the same compound, in data set [1], the half-life at 1 μM is over 120 min. Besides, the half-inhibitory concentration (IC50) was 400 nM at androgen receptor (AR) (read-out: PSA-Luc IC50) and under 500 nM on androgen receptor (AR) (read-out: PSA-Luc IC50 Range).

For `CCS(=O)(=O)Nc1nc(COc2ccc(C(C)(C)c3cc(Cl)c(OCCCl)c(C#N)c3)cc2)co1` [Compound A126], the microsomal CLint at 1 μM in data set [1] is under 12 µL/min/mg. Also, the half-inhibitory concentration (IC50) on androgen receptor (AR) (read-out: PSA-Luc IC50 Range) lay within 500 to 2000 nM.

For the compound `C[C@H](Oc1ccc(C(C)(C)c2cc(Cl)c(OCCCl)c(C#N)c2)cc1)c1ccnc(NS(C)(=O)=O)n1` (single isomer, unassigned) [Compound A170], in data set [1], the microsomal CLint at 1 μM is under 12 µL/min/mg. For the same compound, the half-inhibitory concentration (IC50) at androgen receptor (AR) (read-out: PSA-Luc IC50 Range) fell in the range of 500 to 2000 nM.

With `CC(C)(c1ccc(OCc2ccnc(NS(C)(=O)=O)n2)cc1)c1cc(Cl)c(OCCCl)c(C#N)c1` [Compound A109, N-(4-((4-(2-(3-chloro-4-(2-chloroethoxy)-5-cyanophenyl)propan-2-yl)phenoxy)methyl)pyrimidin-2-yl)methanesulfonamide], the microsomal CLint at 1 μM in data set [1] is under 12 µL/min/mg. In data set [1], the half-life at 1 μM is over 120 min. In addition, the IC50 at androgen receptor (AR) (read-out: PSA-Luc IC50) is 535 nM; at androgen receptor (AR) (read-out: PSA-Luc IC50 Range), 500 to 2000 nM.

Consider `CC(C)(c1ccc(OCc2ncc(S(C)(=O)=O)s2)cc1)c1cc(Cl)c(OCCCl)c(C#N)c1` [Compound A93, 3-chloro-2-(2-chloroethoxy)-5-(2-(4-((5-(methylsulfonyl)thiazol-2-yl)methoxy)phenyl)propan-2-yl)benzonitrile], for which, in data set [1], the microsomal CLint at 1 μM is under 12 µL/min/mg and the half-life at 1 μM is over 120 min. Moreover, at androgen receptor (AR) (read-out: PSA-Luc IC50), the half-maximal inhibitory concentration (IC50) was 205 nM. Moreover, the IC50 at androgen receptor (AR) (read-out: PSA-Luc IC50 Range) was under 500 nM.

Turning to `CCS(=O)(=O)Nc1nccc(COc2ccc(C(C)(C)c3cc(Cl)c(OCCCl)c(C#N)c3)cc2)n1` [Compound A131], the microsomal CLint at 1 μM in data set [1] was under 12 µL/min/mg. In addition, at androgen receptor (AR) (read-out: PSA-Luc IC50 Range), the concentration for half-maximal inhibition (IC50) fell in the range of 500 to 2000 nM.

As to `CC(C)(c1ccc(OCc2ocnc2S(C)(=O)=O)cc1)c1cc(Cl)c(OCCCl)c(Cl)c1` [Compound A13, 5-((4-(2-(3,5-dichloro-4-(2-chloroethoxy)phenyl)propan-2-yl)phenoxy)methyl)-4-(methylsulfonyl)oxazole], in data set [1], the microsomal CLint at 1 μM was under 12 µL/min/mg and the half-life at 1 μM is over 120 min. Besides, on androgen receptor (AR) (read-out: PSA-Luc IC50), the IC50 worked out at 592 nM. Also, the IC50 at androgen receptor (AR) (read-out: PSA-Luc IC50 Range) lay in the range of 500 to 2000 nM.

For orientation: IC50 means the concentration at which inhibition is half-maximal.
